This is an account of results in US20230320970A1, “Skin Care Compositions” (Colgate-Palmolive Company, priority 2022, published 2023).

Data set [1] concerns human derived keratinocytes. Briefly: ROS production in H2O2-treated keratinocytes (alpha-tocopherol, EGT, sodium PCA), ROS Detection Assay Kit. The format is cell-based. Particulars: alpha-tocopherol 0.001%, EGT 0.01%, Na PCA 0.01%; for % Decrease in ROS generated in keratinocyte: relative to 0.3 wt. % H2O2 treatment; for Fold Change, decrease in ROS generated in keratinocyte by antioxidant treatment: vs. 0.1 wt. % DMSO + 0.3 wt. % H2O2. The text has this:
Sample preparation: Human derived keratinocytes, plated on 24-well plates.
Cellular ROS/Superoxide Detection Assay Kit (Abcam—ab139476)

The test system of data set [2] is human derived keratinocytes. Briefly: ROS production in H2O2-treated keratinocytes (alpha-tocopherol, EGT, niacinamide), ROS Detection Assay Kit. The format is cell-based. The note with it: alpha-tocopherol (0.001%) [sic], EGT 0.01%, niacinamide 0.01%; for % Decrease in ROS generated in keratinocyte: relative to 0.3 wt. % H2O2 treatment; for Fold Change, decrease in ROS generated in keratinocyte by antioxidant treatment: vs. 0.1% DMSO + 0.3% H2O2. Here is the method:
Hydrogen peroxide treated cells were then treated with: alpha-tocopherol, ergothioneine and niacinamide, respectively and in combination. […] [table] […] [table]

For data set [3] the following is noted: cited from earlier work.

On to `Cc1c(C)c2c(c(C)c1O)CC[C@@](C)(CCC[C@H](C)CCC[C@H](C)CCCC(C)C)O2` [Alpha-tocopherol, alpha-tocopherol], for which the “% Decrease in ROS generated in keratinocyte” value (shortened to “% Decrease in ROS generated”) is 70.72% in data set [1], 70.72% in data set [1] (listed as α-tocopherol) and 20.79% in data set [2]. For the same compound, the “Fold Change, decrease in ROS generated in keratinocyte by antioxidant treatment” value (“Fold Change, decrease in ROS generated” below) in data set [1] is 4.21-fold decrease; in data set [2], 0.4-fold decrease.

For the compound `C[N+](C)(C)[C@@H](Cc1c[nH]c(=S)[nH]1)C(=O)[O-]` [EGT, Ergothioneine], in data set [1], the “% Decrease in ROS generated” value was 74.5% and the “Fold Change, decrease in ROS generated” value is on record as 4.43-fold decrease. Further, in data set [2], the “% Decrease in ROS generated” value is given as 15.91% and the “Fold Change, decrease in ROS generated” value is on record as 0.31-fold decrease.

For the compound `O=C1CCC(C(=O)[O-])N1.[Na+]` (stereo not drawn) [Na PCA, Sodium PCA], the “% Decrease in ROS generated” value is reported as 37.88% in data set [1], 37.9% in data set [1] (listed as Sodium PCA) and 25.75% in data set [2]. For the same compound, the “Fold Change, decrease in ROS generated” value in data set [1] is recorded as 2.25-fold decrease.

`NC(=O)c1cccnc1` [Niacinamide]: the “Fold Change, decrease in ROS generated” value in data set [2] is 0.24-fold decrease.

One may read the Log P as a log measure of how a compound divides between an organic and an aqueous phase. For `O=C1O[C@H]([C@@H](O)CO)C(O)=C1O[C@H]1O[C@H](CO)[C@@H](O)[C@H](O)[C@H]1O` [ascorbyl glucoside], the “Log P” value in data set [3] is recorded as −2.5.
